This note sets out measurements from PubChem BioAssay (NCI).

Each structure is given as a SMILES string. Where “and” joins values, the source holds several entries; their conditions need not be identical. Equal values may be shown once.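 Each compound was tested at five concentrations against cells in 96-well plates for 48 hours. GI50 = concentration required for 50% inhibition of growth. TGI marks complete inhibition of growth.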 Bounds are passed on as bounds.

Common to all, as to test: NCI anticancer screen, dose series, 48 h
Assay [1] relates to BT-549 breast.
The subject of assay [2] is DU-145 prostate.
The test system of assay [3] is HOP-92 NSCLC.
In assay [4] the test system is HT29 colon.
Assay [5] relates to MALME-3M melanoma.
Assay [6] concerns MDA-N.
Assay [7] relates to NCI-H226 lung.
The subject of assay [8] is NCI/ADR-RES ovarian.
In assay [9] the test system is SK-MEL-5 melanoma.
For assay [10], the system named is M14 melanoma.

With `c1ccc(-c2csc3c2-n2cccc2C3N2CCCC2)cc1` (stereo not given), the TGI in assay [1] was 34.4 µM; in assay [2] it was more than 100 µM; in assay [3], 81.9 µM; in assay [4], more than 100 µM; in assay [5], more than 100 µM; in [6], more than 100 µM. The TGI is more than 100 µM in [7], more than 100 µM in assay [8] and 22.6 µM in assay [9].

On to `COc1ccccc1N1CCN(CCCCNC(=O)c2ccc([N+](=O)[O-])o2)CC1`, for which the TGI in [1] is 14.7 µM; in assay [2], 16.4 µM; in assay [3], 40.4 µM; in [4], 9.92 µM; in assay [10], 14.6 µM; in assay [5], 7.94 µM. Also, the TGI was 13.6 µM in assay [6], 29.4 µM in [7], more than 100 µM in assay [8] and 18.7 µM in assay [9].

As to `COC(CNC(=O)CNC(=O)c1ccc(C(F)(F)F)cc1)OC`, the TGI in assay [1], in assay [2], in assay [3], in [4], in [10] and in assay [5] was more than 100 µM throughout. Also, the TGI in [6], in [7], in [8] and in [9] was more than 100 µM throughout.

Take `c1ccc(CN2CCC(=NN3CCCCC3)CC2)cc1`: the TGI in assay [1], in assay [2], in assay [3], in assay [4], in assay [10] and in assay [5] was more than 100 µM in each case. Further, the TGI in [6], in assay [7], in assay [8] and in [9] was more than 100 µM each time.

For the compound `O=[N+]([O-])c1cc(C2(N3CCCCC3)CCCCC2)sc1Br`, the TGI is 24.3 µM in [1]; 10.2 µM in assay [2]; 21.7 µM in assay [3]; 15.4 µM in assay [4]; 21.9 µM in assay [10]; 20 µM in [5]. The TGI in [6] is 23.3 µM; in [7], 28.1 µM; in [8] it was 28.2 µM; in assay [9] it was 18.7 µM.

Take `CCOC(=O)c1c(N2CCCC2)[nH]c(=O)c(C(c2c(O)c(C(=O)OCC)c(N3CCCC3)[nH]c2=O)C(C)C)c1O`: the TGI in [1], in [2], in assay [3], in assay [4], in assay [10] and in [5] was more than 100 µM throughout. Further, the TGI in [6], in assay [7], in assay [8] and in assay [9] was more than 100 µM each time.

As for `CC(C)C[S+]1C2=C([O-])CC(C)(C)CC2=Nc2ccccc21` (stereo not given), the TGI in assay [1], in [2], in [3], in assay [4], in assay [10] and in assay [5] was more than 100 µM throughout. Besides, the TGI in assay [6], in assay [7], in assay [8] and in assay [9] was more than 100 µM each time.

In the case of `COC(=O)C1OC(O[C@H]2CC[C@]3(C)[C@H]4CC=C5[C@@H]6CC(C)(C)CC[C@]6(C(=O)OC)CC[C@@]5(C)[C@]4(C)CC[C@H]3C2(C)C)C(O)C(O)C1O` (stereo not given in full), the TGI came out at 32.1 µM in [1]; 27.9 µM in assay [2]; 34.7 µM in [3]; 22.9 µM in assay [4]; 30 µM in [10]; 38.2 µM in assay [5]. Besides, the TGI was 30.9 µM in assay [6], 37 µM in assay [7], 36.1 µM in assay [8] and 32.2 µM in assay [9].

With `CCOC(=O)Oc1cc2ccsc2c2c1c1ccccc1n2C(=O)OCC`, the TGI in assay [1] is more than 100 µM; in [2], more than 100 µM; in assay [3], 44.7 µM; in assay [4], more than 100 µM; in assay [10] it was more than 100 µM; in assay [5] it was more than 100 µM. The TGI in assay [6], in [7], in [8] and in [9] was more than 100 µM in each case.

`CCOC(=O)COc1cc(-c2ccccc2F)nc2cc3c(cc12)OCO3`: the TGI in assay [1] is more than 100 µM; in assay [2], more than 100 µM; in [3] it was 98.8 µM; in [4], more than 100 µM; in assay [10], more than 100 µM; in assay [5], more than 100 µM. The TGI in assay [6], in assay [7], in [8] and in [9] was more than 100 µM each time.

As for `Cc1ccc(Nc2c3c(c(C#N)c4nc5ccccc5n24)CCCC3)cc1`, the TGI in assay [1] is more than 100 µM; in assay [2], more than 100 µM; in assay [3], 76.2 µM; in assay [4] it was 37.2 µM; in [10], 74.4 µM; in [5] it was 77.9 µM. Further, the TGI in [6] is more than 100 µM; in assay [7] it was 62 µM; in assay [8], 61.9 µM; in assay [9] it was 23.4 µM.

As for `COC(=O)[C@H](CNC(=O)/C=C/c1ccc(OC(C)=O)c(OC(C)=O)c1)NC(=O)/C=C/c1ccc(OC(C)=O)c(OC(C)=O)c1`, the TGI in [1], in assay [2], in [3], in [4], in [10] and in assay [5] was more than 100 µM in each case. For the same compound, the TGI in assay [6], in assay [7], in assay [8] and in assay [9] was more than 100 µM in each case.

Take `COc1ccc(/C=C2/N=C(N/N=C\C(O)C(O)C(O)CO)NC2=O)cc1` (stereo not given): the TGI in assay [1], in assay [2], in assay [3], in assay [4], in assay [10] and in [5] was more than 100 µM throughout. Besides, the TGI in assay [6], in [7], in assay [8] and in assay [9] was more than 100 µM throughout. The GI50 in [9] was > 100 µM and 41.6 µM.
